Each compound was assayed on nucleoside oxidase (assay: Substrate specificity: relative enzymatic activity on various substrates). Conditions: substrate each 1 mM concentration.
Format: biochemical, Pseudomonas putida B-0781
Protocol: Relative enzymatic activities on various substrates (nucleoside, nucleic acid base, sugar, and nucleotide, each 1 mM concentration) shown in Table 1 were measured.
A reaction mixture (0.5 ml) consisting of 0.2 M dimethylglutarate-NaOH buffer (pH 6.0) 0.2 ml, 0.2 w/w% N,N-diethyl-m-toluidine 0.05 ml, 0.3 w/w% 4-aminoantipyrine 0.05 ml, 10 mM adenosine 0.05 ml and distilled water 0.10 ml was pre-incubated at 37° C. for 3 minutes. After adding enzyme solution (20 μl), the mixture was incubated at 37° C. for 10 minutes, and 0.5 ml of 4 M urea solution containing 0.2% cetylpyridiniumchloride was added to stop the reaction. […] Then the enzyme solution was replaced by distilled water (20 μl) as a control (AB).
(§1) Enzymatic activity should be measured within the value of As below 0.15.
One unit (1 U.) of enzyme activity is that amount of enzyme such that 1μ mole of hydrogen peroxide is generated in one minute at 37° C. with adenosine as substrate, and represented by the following equation: […]

| Compound | Relative activity |
| --- | --- |
| Nc1ncnc2c1ncn2[C@@H]1O[C@H](COP(=O)(O)OP(=O)(O)O)[C@@H](O)[C@H]1O [5'-ADP] | 0% |
| Nc1ncnc2c1ncn2[C@@H]1O[C@H](COP(=O)(O)OP(=O)(O)OP(=O)(O)O)[C@@H](O)[C@H]1O [5'-ATP] | 0% |
| Nc1ncnc2nc[nH]c12 [adenine] | 0% |
| Nc1ncnc2c1ncn2[C@@H]1O[C@H](CO)[C@@H](O)[C@H]1O [adenosine] | 100% |
| Nc1ncnc2c1ncn2[C@@H]1O[C@H](CO)[C@@H](O)[C@@H]1O [arabinosyladenine, reference compound] | 67.2% |
| O=c1[nH]cnc2nc[nH]c12 [hypoxanthine] | 0% |
| Cc1cn([C@H]2C[C@H](O)[C@@H](CO)O2)c(=O)[nH]c1=O [thymidine] | 94.3% |
| Cc1c[nH]c(=O)[nH]c1=O [thymine] | 0% |
| O=c1ccn([C@@H]2O[C@H](CO)[C@@H](O)[C@H]2O)c(=O)[nH]1 [uridine] | 94.3% |
| O=c1[nH]c(=O)c2[nH]cnc2[nH]1 [xanthine] | 0% |
| O=P(O)(O)O[C@H]1O[C@H](CO)[C@@H](O)[C@H]1O [α-D-ribose-1-phosphate] | 0% |

Further lines, results first:

| Relative activity | Compound |
| --- | --- |
| 99.1% | Nc1ncnc2c1ncn2[C@H]1C[C@H](O)[C@@H](CO)O1 [2'-deoxyadenosine] |
| 0% | Nc1ncnc2c1ncn2[C@@H]1O[C@H](COP(=O)(O)O)[C@@H](O)[C@H]1O [5'-AMP] |
| 0% | Nc1ccn([C@@H]2O[C@H](COP(=O)(O)O)[C@@H](O)[C@H]2O)c(=O)n1 [5'-CMP] |
| 0% | Nc1nc2c(ncn2[C@@H]2O[C@H](COP(=O)(O)O)[C@@H](O)[C@H]2O)c(=O)[nH]1 [5'-GMP] |
| 0% | O=c1ccn([C@@H]2O[C@H](COP(=O)(O)O)[C@@H](O)[C@H]2O)c(=O)[nH]1 [5'-UMP] |
| 0% | O=c1[nH]c(=O)c2ncn([C@@H]3O[C@H](COP(=O)(O)O)[C@@H](O)[C@H]3O)c2[nH]1 [5'-XMP] |
| 0% | O=C[C@H](O)[C@H](O)[C@H](O)CO [D-ribose] |
| 8.1% | Nc1ccn([C@@H]2O[C@H](CO)[C@@H](O)[C@@H]2O)c(=O)n1 [arabinosylcytosine, 1-β-D-arabinofuranosylcytosine, reference compound] |
| 48.2% | NC(=O)c1ncn([C@@H]2O[C@H](CO)[C@@H](O)[C@H]2O)c1O [bredinine, 4-carbamoyl-1-D-ribofuranosylimidazolium-5-olate, reference compound] |
| 65.7% | Nc1ccn([C@@H]2O[C@H](CO)[C@@H](O)[C@H]2O)c(=O)n1 [cytidine] |
| 97.1% | Nc1nc2c(ncn2[C@@H]2O[C@H](CO)[C@@H](O)[C@H]2O)c(=O)[nH]1 [guanosine] |
| 91.4% | OC[C@H]1O[C@@H](n2cnc3c(O)ncnc32)[C@H](O)[C@@H]1O [inosine] |
| 0% | O=c1cc[nH]c(=O)[nH]1 [uracil] |
| 14.3% | O=c1[nH]c(=O)c2ncn([C@@H]3O[C@H](CO)[C@@H](O)[C@H]3O)c2[nH]1 [xanthosine] |

The compounds below were run on nucleoside oxidase (assay: Km value of the enzyme). Conditions: for adenosine.
Format: biochemical, Pseudomonas putida B-0781
Protocol: as §1
(§2) One unit (1 U.) of enzyme activity is that amount of enzyme such that 1μ mole of hydrogen peroxide is generated in one minute at 37° C. with adenosine as substrate, and represented by the following equation:
(§3) Enzyme activity (U/ml)=1.25×(As-AB)×dilution ratio.

| Compound | Km |
| --- | --- |
| Nc1ncnc2c1ncn2[C@@H]1O[C@H](CO)[C@@H](O)[C@H]1O [adenosine] | 45 µM |

What follows are compounds tested on nucleoside oxidase (assay: Effect of metal ions on enzyme activity (Table 2)). Conditions: control 100; 10 min.
Format: biochemical, Pseudomonas putida B-0781
Parameters: concentration or dose not given beside the values
Protocol: as §1, §2, §3

| Relative activity | Compound |
| --- | --- |
| 102% | [Ca+2] [Ca^2+] |
| 104% | [Co+2] [Co^2+] |
| 98% | O=C(O)CN(CCN(CC(=O)O)CC(=O)O)CC(=O)O [EDTA, reference compound] |
| 104% | [Mg+2] [Mg^2++] |
| 110% | [Mn+2] [Mn^2+] |
| 94% | [Zn+2] [Zn^2+] |

| Compound | Relative activity |
| --- | --- |
| [Ba+2] [Ba^2+] | 100% |
| O=C(O)c1cc[c]([Hg][Cl])cc1 [PCMB, reference compound] | 102% |

Each compound was assayed on nucleoside oxidase (assay: Effect of surface active agent on enzyme activity (Table 3)). Conditions: 0.1 w/w % surface active agent; None 100.
Format: biochemical, Pseudomonas putida B-0781
Protocol: as §1, §2, §3

| Compound | Relative activity |
| --- | --- |
| CCCCCCCCCCCCCCCC[N+](C)(C)C.[Cl-] [cetyl trimethylammonium chloride] | 78% |
| C[C@H](CCC(=O)O)[C@H]1CC[C@H]2[C@@H]3CC[C@@H]4C[C@H](O)CC[C@]4(C)[C@H]3C[C@H](O)[C@]12C [sodium deoxycholate] | 102% |
| CCCCCCCCCCCCOS(=O)(=O)[O-].[Na+] [sodium dodecyl sulfate] | 66% |
| Triton X-100 | 104% |
| sodium lauryl benzene sulfonate | 38% |

These compounds were tested on nucleoside oxidase (assay: Amount of oxygen consumption and hydrogen peroxide generation in the reaction). Conditions: not given.
Format: biochemical, Pseudomonas putida B-0781
Protocol: The amount of consumed oxygen (measured by an oxygen electrode) and generated hydrogen peroxide (colorimetric assay at 545 nm) were measured. Results: adenosine 0.05μ mole; consumed oxygen 0.097μ mole; and generated hydrogen peroxide 0.101μ mole.

| Compound | moles of hydrogen peroxide generated per 1 mole of adenosine | moles of oxygen consumed per 1 mole of adenosine |
| --- | --- | --- |
| Nc1ncnc2c1ncn2[C@@H]1O[C@H](CO)[C@@H](O)[C@H]1O [adenosine] | 2 mol | 2 mol |

Same assay, conditions: adenosine 0.05 μ mole, nucleoside oxidase 3 U., colorimetric assay at 545 nm

| Compound | generated hydrogen peroxide |
| --- | --- |
| Nc1ncnc2c1ncn2[C@@H]1O[C@H](CO)[C@@H](O)[C@H]1O [adenosine] | 0.101 μ mole |

Same assay, conditions: adenosine 0.05 μ mole, nucleoside oxidase 3 U., oxygen electrode

| Compound | consumed oxygen |
| --- | --- |
| Nc1ncnc2c1ncn2[C@@H]1O[C@H](CO)[C@@H](O)[C@H]1O [adenosine] | 0.097 μ mole |

Reference: patent US4385112A (priority 1980, dated 1983)
